Earlier results on 1 molecule are cited in patent US12427126B2, “Niclosamide formulations and methods of use” (Florida State University Research Foundation, Inc., priority 2020, dated 2025).

For series [1] the following is noted: administered orally.

Structures are written as SMILES.

`O=C(Nc1ccc([N+](=O)[O-])cc1Cl)c1cc(Cl)ccc1O` [Niclosamide]: the solubility result is “low solubility”. Further, the systemic bioavailability result in series [1] is on record as “low systemic bioavailability”.
